{
  "source": "patent US12630563B2",
  "about": "“Macrocyclic RIP2-kinase inhibitors” (Oncodesign S.A., priority 2020, dated 2026)",
  "data": [
    {"biological_target": "T1, recombinant hRIPK2 protein (kinase domain aa 1-299-His-tagged) (Homo sapiens, UniProt O43353)", "T1 construct": "kinase domain aa 1-299-His-tagged; purchased Life Technologies PR7829A", "T1 sequence (O43353 1-299)": "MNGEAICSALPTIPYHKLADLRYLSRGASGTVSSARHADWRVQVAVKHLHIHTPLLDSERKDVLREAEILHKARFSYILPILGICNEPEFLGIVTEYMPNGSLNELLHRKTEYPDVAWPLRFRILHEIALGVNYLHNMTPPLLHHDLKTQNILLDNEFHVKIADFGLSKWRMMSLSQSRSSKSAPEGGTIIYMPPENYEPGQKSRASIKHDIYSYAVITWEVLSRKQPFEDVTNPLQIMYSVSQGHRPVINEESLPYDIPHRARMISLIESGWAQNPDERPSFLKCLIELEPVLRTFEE", "experiment": "RIPK2 AlphaLISA assay (displacement of bead-bound CZC-8004 from hRIPK2)", "format": "binding", "details": "recombinant hRIPK2 kinase domain 10 nM, 2 h at 23° C.", "excerpt": "RIPK2 AlphaLISA® Assay (Amplified Luminescent Proximity Homogeneous Assay)\nA non-specific kinase inhibitor (CZC-8004 Cayman #916603-07-1) bound to an acceptor bead (#6772001 PerkinElmer) was mixed to the recombinant hRIPK2 protein (kinase domain aa 1-299-His-tagged—Life Technologies PR7829A) and a Ni2+-tagged donor beads (#AS101D PerkinElmer). In the presence of an inhibitor, the compound beads displacement from hRIPK2 was followed by signal loss. In a 384-well ProxiPlate@ (Perkin Elmer, 6008280) add:\n2 μL RIPK2 inhibitor (in DMSO 0.8%).\n2 μL human recombinant RIPK2 (10 nM diluted in AlphaLISA buffer 1×).\n4 μL Mix of […] 1/1000 in AlphaLISA buffer 1×.\nHomogenize using a microtiter plate shaker and incubate for 2 h at 23° C.\nRead using EnVision®-Alpha Reader (PerkinElmer) according to manufacturer specifications.", "units": {"IC50": "nM"}, "values": [
      {"smiles": "CO[C@@H]1C[C@H]2COc3nc4c(cnn4cc3C)-c3cc(Cl)cc(c3)NCCN2C1=O", "note": "[Example 24, (12R,14S)-4-chloro-12-methoxy-18-methyl-16-oxa-7,10,20,21,24-pentaazapentacyclo[15.5.2.1^2,6.0^10,^14.0^20,^23]pentacosa-1(23),2(25),3,5,17(24),18,21-heptaen-11-one]", "IC50": "< 10"},
      {"smiles": "CO[C@@H]1CC2(C)COc3ccn4ncc(c4n3)-c3cc(F)cc(c3)NCCN2C1=O", "note": "(single isomer, unassigned) [Example 86]", "IC50": "< 10"},
      {"smiles": "CCN(C)C(=O)c1cc2cc(c1)-c1cnn3cc(C)c(nc13)OC[C@@H]1C[C@@H](OC)C(=O)N1CCN2", "note": "[Example 62, (12R,14S)-N-ethyl-12-methoxy-N,18-dimethyl-11-oxo-16-oxa-7,10,20,21,24-pentaazapentacyclo[15.5.2.1^2,6.0^10,^14.0^20,^23]pentacosa-1(23),2(25),3,5,17(24),18,21-heptaene-4-carboxamide]", "IC50": "< 10"},
      {"smiles": "COCCO[C@@H]1C[C@H]2COc3ccn4ncc(c4n3)-c3cc(O)cc(c3)NCCN2C1=O", "note": "[Example 97, (12R,14S)-4-hydroxy-12-(2-methoxyethoxy)-16-oxa-7,10,20,21,24-pentaazapentacyclo[15.5.2. 1^2,6.0^10,^14.0^20,^23]pentacosa-1(23),2,4,6(25),17(24),18,21-heptaen-11-one]", "IC50": "< 10"},
      {"smiles": "CO[C@@H]1C[C@H]2COc3ccn4ncc(c4n3)-c3cc(cc(C(=O)N(C)CC4CC4)c3)NCCN2C1=O", "note": "[Example 61, (12R,14S)-N-(cyclopropylmethyl)-12-methoxy-N-methyl-11-oxo-16-oxa-7,10,20,21,24-pentaazapentacyclo[15.5.2.1^2,6.0^10,^14.0^20,^23]pentacosa-1(23),2,4,6(25),17(24),18,21-heptaene-4-carboxamide]", "IC50": "100 to 11000"},
      {"smiles": "CO[C@H]1C[C@H]2COc3ccn4ncc(c4n3)-c3cc(F)cc(c3)NCCN2C1=O", "note": "[Example 25, (12S,14S)-4-fluoro-12-methoxy-16-oxa-7,10,20,21,24-pentaazapentacyclo[15.5.2.1^2,6.0^10,^14.0^20,^23]pentacosa-1(23),2(25),3,5,17(24),18,21-heptaen-11-one]", "IC50": "< 10"},
      {"smiles": "COCc1cc2cc(c1)-c1cnn3cc(C)c(nc13)OC[C@@H]1CC(OC)C(=O)N1CCN2", "note": "(single isomer, unassigned) [Example 66, (12R or S,14S)-12-methoxy-4-(methoxymethyl)-18-methyl-16-oxa-7,10,20,21,24-pentaazapenta cyclo[15.5.2.1^2,6.0^10,14.0^20,23]pentacosa-1(23),2,4,6(25),17(24), 18,21-heptaen-11-one]", "IC50": "< 10"},
      {"smiles": "COCCOc1cn2ncc3c2nc1OC[C@@H]1C[C@@H](OCCOC)C(=O)N1CCNc1cc(OC)cc-3c1", "note": "[Example 137, (12R,14S)-4-methoxy-12,18-bis(2-methoxyethoxy)-16-oxa-7,10,20,21,24-pentaazapentacyclo[15.5.2. 1^2,6.0^10,^14.0^20,^23]pentacosa-1(23),2,4,6(25),17(24),18,21-heptaen-11-one]", "IC50": "< 10"},
      {"smiles": "COCCO[C@@H]1C[C@H]2COc3nc4c(cnn4cc3OCC3COC3)-c3cc(cc(OC)c3)NCCN2C1=O", "note": "[Example 144]", "IC50": "< 10"},
      {"smiles": "CCO[C@@H]1C[C@H]2COc3ccn4ncc(c4n3)-c3cc(cc(C(=O)NC)c3)NCCN2C1=O", "note": "[Example 59, (12R,14S)-12-ethoxy-N-methyl-11-oxo-16-oxa-7,10,20,21,24-pentaazapentacyclo[15.5.2.1^2,6.0^10,^14.0^20,^23]pentacosa-1(23),2(25),3,5,17(24),18,21-heptaene-4-carboxamide]", "IC50": "< 10"},
      {"smiles": "CCO[C@@H]1C[C@H]2COc3ccn4ncc(c4n3)-c3cc(Cl)cc(c3)NCCN2C1=O", "note": "[Example 20, (12R,14S)-4-chloro-12-ethoxy-16-oxa-7,10,20,21,24-pentaazapentacyclo[15.5.2.1^2,6.0^10,^14.0^20,^23]pentacosa-1(23),2,4,6(25),17(24),18,21-heptaen-11-one]", "IC50": "< 10"},
      {"smiles": "O=C1[C@H](OCC2COC2)C[C@H]2COc3ccn4ncc(c4n3)-c3cc(F)cc(c3)NCCN12", "note": "[Example 91, (12R,14S)-4-fluoro-12-(oxetan-3-ylmethoxy)-16-oxa-7,10,20,21,24-pentaazapentacyclo[15.5.2.1^2,6.0^1°,^14.0^2°,^23]pentacosa-1(23),2(25),3,5,17(24),18,21-heptaen-11-one]", "IC50": "< 10"},
      {"smiles": "COc1cc2cc(c1)-c1cnn3ccc(nc13)OC[C@@H]1C[C@@H](OCC3CC3)C(=O)N1CCN2", "note": "[Example 22, (12R,14S)-12-(cyclopropylmethoxy)-4-methoxy-16-oxa-7,10,20,21,24-pentaazapentacyclo[15.5.2.1^2,6.0^10,^14.0^20,^23]pentacosa-1(23),2(25),3,5,17(24),18,21-heptaen-11-one]", "IC50": "< 10"},
      {"smiles": "CO[C@@H]1C[C@H]2COc3nc4c(cnn4cc3C)-c3cc(CO)cc(c3)NCCN2C1=O", "note": "[Example 64, (12R,14S)-4-(hydroxymethyl)-12-methoxy-18-methyl-16-oxa-7,10,20,21,24-pentaazapentacyclo[15.5.2.1^2,6.0^1°,^14.0^2°,^23]pentacosa-1(23),2,4,6(25),17(24),18,21-heptaen-11-one]", "IC50": "10 to 100"},
      {"smiles": "CO[C@@H]1C[C@H]2COc3ccn4ncc(c4n3)-c3cc(cc(-c4cn(C)nn4)c3)NCCN2C1=O", "note": "[Example 119, (12R,14S)-12-methoxy-4-(1-methyl-1H-1,2,3-triazol-4-yl)-16-oxa-7,10,20,21,24-pentaazapentacyclo[15.5.2.1^2,6.0^1°,^14.0^2°,^23]pentacosa-1(23),2,4,6(25),17(24),18,21-heptaen-11-one]", "IC50": "10 to 100"},
      {"smiles": "COCCc1cn2ncc3c2nc1OC[C@@H]1C[C@@H](OC)C(=O)N1CCNc1cc(F)cc-3c1", "note": "[Example 77, (12R,14S)-4-fluoro-12-methoxy-18-(2-methoxyethyl)-16-oxa-7,10,20,21,24-pentaazapentacyclo[15.5.2.1^2,6.0^1°,^14.0^2°,^23]pentacosa-1(23),2(25),3,5,17(24),18,21-heptaen-11-one]", "IC50": "< 10"},
      {"smiles": "COCCO[C@@H]1C[C@H]2COc3ccn4ncc(c4n3)-c3cc(cc(OC(C)C)c3)NCCN2C1=O", "note": "(racemic) [Example 113, (12R,14S)-12-(2-methoxyethoxy)-4-(propan-2-yloxy)-16-oxa-7,10,20,21,24-pentaazapentacyclo[15.5.2.1^2,6.0^10,^14.0^20,^23]pentacosa-1(23),2(25),3,5,17(24),18,21-heptaen-11-one]", "IC50": "10 to 100"},
      {"smiles": "CC(C)O[C@@H]1C[C@H]2COc3ccn4ncc(c4n3)-c3cc(Cl)cc(c3)NCCN2C1=O", "note": "[Example 38, (12R,14S)-4-chloro-12-(propan-2-yloxy)-16-oxa-7,10,20,21,24-pentaazapentacyclo[15.5.2.1^2,6.0^10,^14.0^20,^23]pentacosa-1(23),2,4,6(25),17(24),18,21-heptaen-11-one]", "IC50": "< 10"},
      {"smiles": "CO[C@@H]1C[C@H]2COc3ccn4ncc(c4n3)-c3cc(cc(OCc4ccccc4)c3)NCCN2C1=O", "note": "[Example 14, (12R, 14S)-4-(benzyloxy)-12-methoxy-16-oxa-7,10,20,21,24-pentaazapentacyclo[15.5.2.1^2,6.0^10,14.0^20,^23]pentacosa-1(23),2,4,6(25),17(24),18,21-heptaen-11-one]", "IC50": "10 to 100"},
      {"smiles": "CCOc1cn2ncc3c2nc1OC[C@@H]1C[C@@H](OCCOC)C(=O)N1CCNc1cc(OC)cc-3c1", "note": "[Example 124, (12R,14S)-18-ethoxy-4-methoxy-12-(2-methoxyethoxy)-16-oxa-7,10,20,21,24-pentaazapentacyclo[15.5.2. 1^2,6.0^10,^14.0^20,^23]pentacosa-1(23),2,4,6(25),17(24),18,21-heptaen-11-one]", "IC50": "< 10"},
      {"smiles": "COc1cn2ncc3c2nc1OC[C@@H]1C[C@@H](OC)C(=O)N1CCNc1cc-3cc(C(F)(F)F)c1", "note": "[Example 2, (12R,14S)-12,18-dimethoxy-4-(trifluoromethyl)-16-oxa-7,10,20,21,24-pentaazapentacyclo[15.5.2.1^2,6.0^10,^14.0^20,^23]pentacosa-1(23),2(25),3,5,17(24),18,21-heptaen-11-one]", "IC50": "< 10"},
      {"smiles": "COc1cc2cc(c1)-c1cnn3cc(OC)c(nc13)OC[C@@H]1C[C@@H](OCCN(C)C)C(=O)N1CCN2", "note": "[Example 135, (12R,14S)-12-[2-(dimethylamino)ethoxy]-4,18-dimethoxy-16-oxa-7,10,20,21,24-pentaazapentacyclo[15.5.2. 1^2,6.0^10,^14.0^20,^23]pentacosa-1(23),2,4,6(25),17(24),18, 21-heptaen-11-one]", "IC50": "< 10"},
      {"smiles": "CCO[C@@H]1C[C@@H]2COc3ccn4ncc(c4n3)-c3cc(cc(OC)c3)NCCN2C1=O", "note": "[Example 87, (12R,14R)-12-ethoxy-4-methoxy-16-oxa-7,10,20,21,24-pentaazapentacyclo[15.5.2.1^2,6.0^10,^14.0^20,^23]pentacosa-1(23),2,4,6(25),17(24),18,21-heptaen-11-one]", "IC50": "100 to 11000"},
      {"smiles": "O=C1[C@H](OC2CC2)C[C@H]2COc3ccn4ncc(c4n3)-c3cc(cc(-n4cccn4)c3)NCCN12", "note": "[Example 81, (12R,14S)-12-cyclopropoxy-4-(1H-pyrazol-1-yl)-16-oxa-7,10,20,21,24-pentaazapentacyclo[15.5.2. 1^2,6.0^10,^14.0^20,^23]pentacosa-1(23),2(25),3,5,17(24),18,21-heptaen-11-one]", "IC50": "< 10"}
    ]}
  ]
}
